In PubChem BioAssay (NCI):
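How tested: cells in 96-well plates exposed to compound for 48 hours at five concentrations. GI50 = concentration required for 50% inhibition of growth. At the TGI there is no net growth.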

Tests used:
Test in all cases: inhibition of tumour cell growth, NCI panel, 48 h
786-0 renal = system: 786-0 renal
A549 NSCLC = system: A549 NSCLC
ACHN renal = system: ACHN renal
BT-549 breast = system: BT-549 breast
CAKI-1 renal = system: CAKI-1 renal
CCRF-CEM leukemia = system: CCRF-CEM leukemia
COLO 205 colon = system: COLO 205 colon
DU-145 prostate = system: DU-145 prostate
EKVX NSCLC = system: EKVX NSCLC
HCC-2998 colon = system: HCC-2998 colon
HCT-116 colon = system: HCT-116 colon
HCT-15 colon = system: HCT-15 colon
HL-60(TB) leukemia = system: HL-60(TB) leukemia
HOP-62 NSCLC = system: HOP-62 NSCLC
HOP-92 NSCLC = system: HOP-92 NSCLC
HT29 colon = system: HT29 colon
IGROV1 ovarian = system: IGROV1 ovarian
KM12 colon = system: KM12 colon
LOX IMVI melanoma = system: LOX IMVI melanoma
M14 melanoma = system: M14 melanoma
MALME-3M melanoma = system: MALME-3M melanoma
MCF7 breast = system: MCF7 breast
MDA-MB-231 breast = system: MDA-MB-231 breast
MDA-MB-435 = system: MDA-MB-435
MOLT-4 leukemia = system: MOLT-4 leukemia
NCI-H226 lung = system: NCI-H226 lung
NCI-H23 lung = system: NCI-H23 lung
NCI-H460 lung = system: NCI-H460 lung
NCI-H522 lung = system: NCI-H522 lung
NCI/ADR-RES ovarian = system: NCI/ADR-RES ovarian
OVCAR-3 ovarian = system: OVCAR-3 ovarian
OVCAR-4 ovarian = system: OVCAR-4 ovarian
OVCAR-5 ovarian = system: OVCAR-5 ovarian
OVCAR-8 ovarian = system: OVCAR-8 ovarian
PC-3 prostate = system: PC-3 prostate
RPMI-8226 leukemia = system: RPMI-8226 leukemia
RXF 393 renal = system: RXF 393 renal
SF-268 CNS = system: SF-268 CNS
SF-295 CNS = system: SF-295 CNS
SF-539 CNS = system: SF-539 CNS
SK-MEL-2 melanoma = system: SK-MEL-2 melanoma
SK-MEL-28 melanoma = system: SK-MEL-28 melanoma
SK-MEL-5 melanoma = system: SK-MEL-5 melanoma
SK-OV-3 ovarian = system: SK-OV-3 ovarian
SN12C renal = system: SN12C renal
SNB-19 CNS = system: SNB-19 CNS
SNB-75 CNS = system: SNB-75 CNS
SR leukemia = system: SR leukemia
SW-620 colon = system: SW-620 colon
T-47D breast = system: T-47D breast
TK-10 renal = system: TK-10 renal
U251 CNS = system: U251 CNS
UACC-257 melanoma = system: UACC-257 melanoma
UACC-62 melanoma = system: UACC-62 melanoma
UO-31 renal = system: UO-31 renal

With `CCCCC/C=C\C/C=C/CCCCCCCCNC(=O)Nc1ccc([N+](=O)[O-])cc1` the GI50 (786-0 renal) was 29.5 µM, the TGI (786-0 renal) was over 100 µM and the GI50 (A549 NSCLC) was 38.2 µM. It also gave a TGI (A549 NSCLC) of over 100 µM, a GI50 (ACHN renal) of 6.8 µM and a TGI (ACHN renal) of over 100 µM. The GI50 (BT-549 breast) was 28.2 µM, the TGI (BT-549 breast) was 65.3 µM and the GI50 (CAKI-1 renal) was 5.9 µM. The TGI (CAKI-1 renal) was over 100 µM, the GI50 (CCRF-CEM leukemia) was 4.59 µM and the TGI (CCRF-CEM leukemia) was over 100 µM. It also gave a GI50 (COLO 205 colon) of 15 µM, a TGI (COLO 205 colon) of 28.9 µM and a GI50 (DU-145 prostate) of 40.1 µM. The TGI (DU-145 prostate) was over 100 µM, the GI50 (EKVX NSCLC) was 23.8 µM and the TGI (EKVX NSCLC) was over 100 µM. The GI50 (HCC-2998 colon) was 15.7 µM, the TGI (HCC-2998 colon) was over 100 µM and the GI50 (HCT-116 colon) was 4.17 µM. It also gave a TGI (HCT-116 colon) of 35.6 µM, a GI50 (HCT-15 colon) of 8.81 µM and a TGI (HCT-15 colon) of over 100 µM. It also gave a GI50 (HL-60(TB) leukemia) of 19.9 µM, a TGI (HL-60(TB) leukemia) of 47.5 µM and a GI50 (HOP-62 NSCLC) of 40.8 µM. The TGI (HOP-62 NSCLC) was over 100 µM, the GI50 (HOP-92 NSCLC) was 4.27 µM and the TGI (HOP-92 NSCLC) was 35.4 µM. The GI50 (HT29 colon) was 25.1 µM, the TGI (HT29 colon) was over 100 µM and the GI50 (IGROV1 ovarian) was 26.4 µM. It also gave a TGI (IGROV1 ovarian) of over 100 µM, a GI50 (KM12 colon) of 6.96 µM and a TGI (KM12 colon) of over 100 µM. The GI50 (LOX IMVI melanoma) was 5.75 µM, the TGI (LOX IMVI melanoma) was over 100 µM and the GI50 (M14 melanoma) was 6.9 µM. It also gave a TGI (M14 melanoma) of 77.5 µM, a GI50 (MALME-3M melanoma) of 25.2 µM and a TGI (MALME-3M melanoma) of 84.4 µM. For the same compound, the GI50 (MCF7 breast) was 23.7 µM, the TGI (MCF7 breast) was over 100 µM and the GI50 (MDA-MB-231 breast) was 13.9 µM. For the same compound, the TGI (MDA-MB-231 breast) was over 100 µM, the GI50 (MDA-MB-435) was 8.21 µM and the TGI (MDA-MB-435) was over 100 µM. For the same compound, the GI50 (MOLT-4 leukemia) was 5.68 µM, the TGI (MOLT-4 leukemia) was 41.4 µM and the GI50 (NCI-H226 lung) was 14.8 µM. For the same compound, the TGI (NCI-H226 lung) was over 100 µM, the GI50 (NCI-H23 lung) was 5.19 µM and the TGI (NCI-H23 lung) was 72 µM. It also gave a GI50 (NCI-H460 lung) of 21.9 µM, a TGI (NCI-H460 lung) of over 100 µM and a GI50 (NCI-H522 lung) of 11.5 µM. For the same compound, the TGI (NCI-H522 lung) was over 100 µM, the GI50 (NCI/ADR-RES ovarian) was 7.8 µM and the TGI (NCI/ADR-RES ovarian) was over 100 µM. The GI50 (OVCAR-3 ovarian) was 6.74 µM, the TGI (OVCAR-3 ovarian) was over 100 µM and the GI50 (OVCAR-4 ovarian) was 13.5 µM. The TGI (OVCAR-4 ovarian) was over 100 µM, the GI50 (OVCAR-5 ovarian) was 30.8 µM and the TGI (OVCAR-5 ovarian) was over 100 µM. It also gave a GI50 (OVCAR-8 ovarian) of 8.82 µM, a TGI (OVCAR-8 ovarian) of over 100 µM and a GI50 (PC-3 prostate) of 4.45 µM. For the same compound, the TGI (PC-3 prostate) was over 100 µM, the GI50 (RPMI-8226 leukemia) was 4.54 µM and the TGI (RPMI-8226 leukemia) was 39.5 µM. It also gave a GI50 (RXF 393 renal) of 24.1 µM, a TGI (RXF 393 renal) of 73.8 µM and a GI50 (SF-268 CNS) of 38 µM. It also gave a TGI (SF-268 CNS) of over 100 µM, a GI50 (SF-295 CNS) of 4.96 µM and a TGI (SF-295 CNS) of over 100 µM. The GI50 (SF-539 CNS) was 41.4 µM, the TGI (SF-539 CNS) was over 100 µM and the GI50 (SK-MEL-2 melanoma) was 32.3 µM. The TGI (SK-MEL-2 melanoma) was over 100 µM, the GI50 (SK-MEL-28 melanoma) was 32.7 µM and the TGI (SK-MEL-28 melanoma) was over 100 µM. The GI50 (SK-MEL-5 melanoma) was 14.8 µM, the TGI (SK-MEL-5 melanoma) was 32.4 µM and the GI50 (SK-OV-3 ovarian) was 40.7 µM. It also gave a TGI (SK-OV-3 ovarian) of over 100 µM, a GI50 (SN12C renal) of 8.12 µM and a TGI (SN12C renal) of over 100 µM. For the same compound, the GI50 (SNB-19 CNS) was 9.07 µM, the TGI (SNB-19 CNS) was over 100 µM and the GI50 (SNB-75 CNS) was 22.9 µM. The TGI (SNB-75 CNS) was over 100 µM, the GI50 (SR leukemia) was 10.8 µM and the TGI (SR leukemia) was 37.6 µM. It also gave a GI50 (SW-620 colon) of 5.51 µM, a TGI (SW-620 colon) of over 100 µM and a GI50 (T-47D breast) of 22.7 µM. For the same compound, the TGI (T-47D breast) was over 100 µM, the GI50 (TK-10 renal) was over 100 µM and the TGI (TK-10 renal) was over 100 µM. For the same compound, the GI50 (U251 CNS) was 6.05 µM, the TGI (U251 CNS) was over 100 µM and the GI50 (UACC-257 melanoma) was 40.7 µM. It also gave a TGI (UACC-257 melanoma) of over 100 µM, a GI50 (UACC-62 melanoma) of 2900 nM and a TGI (UACC-62 melanoma) of over 100 µM. For the same compound, the GI50 (UO-31 renal) was 24.3 µM and the TGI (UO-31 renal) was over 100 µM.
